Assay in all cases: NCI-60 cell line screen, 48 h
Experiment [1] has as its system 786-0.
The test system of experiment [2] is A549.
Experiment [3] deals with ACHN.
The test system of experiment [4] is COLO 205.
The subject of experiment [5] is HCT-15.
The subject of experiment [6] is KM12.
Experiment [7] deals with MOLT-4.
The test system of experiment [8] is Malme-3M.
Experiment [9] relates to NCI-H23.
The test system of experiment [10] is NCI-H460.
The test system of experiment [11] is SF-295.
Experiment [12] deals with SK-MEL-28.
The subject of experiment [13] is SK-OV-3.
The test system of experiment [14] is SN12C.
Experiment [15] deals with TK-10.
Experiment [16] deals with UACC-257.

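1) Cells in 96-well plates. 2) Compound, 48 h, 5 concentrations. 3) Linear interpolation between surrounding doses. 4) Unreached endpoint = highest concentration. GI50 marks 50% less growth.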 Calls of active or inactive are those of the source. No stated cut-off is given here; in the data, active = GI50 up to about 1.1 µM and inactive = higher.

On to `CC(=O)Nc1ccccc1Sc1ccccc1`, for which the GI50 in experiment [1] was > 100 µM (inactive); in experiment [2], > 100 µM (inactive); in experiment [3], > 100 µM (inactive); in experiment [4], > 100 µM (inactive); in experiment [5], over 100 µM; in [6], > 100 µM (inactive). Also, the GI50 in experiment [7], in experiment [8], in [9], in experiment [10], in experiment [11] and in [12] was > 100 µM (inactive) throughout. Further, the GI50 in experiment [13], in [14], in experiment [15] and in experiment [16] was > 100 µM (inactive) in each case.

Turning to `CCCCCN(CCCCC)C(=O)[C@@H](CCC(=O)OCc1ccccc1)NC(=O)c1cc2ccccc2[nH]1`, the GI50 in experiment [1] is > 100 µM (inactive); in experiment [2] it was > 100 µM (inactive); in experiment [3] it was > 100 µM (inactive); in experiment [4], 6.18 µM (inactive); in [5] it was over 100 µM; in experiment [6] it was 7.67 µM (inactive). The GI50 in experiment [8], in experiment [9], in experiment [10], in experiment [11], in experiment [12] and in [13] was > 100 µM (inactive) throughout. Further, the figures for the GI50 in [14] and in experiment [16] were > 100 µM (inactive) and 39.3 µM (inactive), respectively.

Take `CCOC(=O)CC1=N/C(=N/C(=N)N[N+](=O)[O-])SC1`: the GI50 in [1] is > 100 µM (inactive); in [2] it was > 100 µM (inactive); in [3] it was > 100 µM (inactive); in experiment [4] it was > 100 µM (inactive); in experiment [5] it was over 100 µM; in [6], > 100 µM (inactive). The GI50 in [8], in experiment [9], in [10], in experiment [11], in [12] and in experiment [13] was > 100 µM (inactive) each time. Besides, the GI50 in [14], in [15] and in experiment [16] was > 100 µM (inactive) in each case.

Regarding `CCc1cccc(C)c1NC(=O)C(=O)Cc1nc2ccccc2o1`, the GI50 in [1] was > 100 µM (inactive); in [3], > 100 µM (inactive); in experiment [4] it was > 100 µM (inactive); in experiment [5] it was over 100 µM; in [7], > 100 µM (inactive); in [8], > 100 µM (inactive). The GI50 in [9], in experiment [10], in [11], in experiment [12], in experiment [13] and in [14] was > 100 µM (inactive) in each case. Moreover, the GI50 in experiment [15] and in experiment [16] was > 100 µM (inactive) in each case.

On to `O=C1O[C@@H](c2ccccc2)C[C@H]1CN1CCOCC1`, for which the GI50 in [1] was 28.2 µM (inactive); in experiment [2] it was > 100 µM (inactive); in experiment [3], > 100 µM (inactive); in experiment [4] it was 97.5 µM (inactive); in experiment [5], over 100 µM; in experiment [6], 89.5 µM (inactive). Besides, the GI50 in [7] is 33 µM (inactive); in experiment [8], > 100 µM (inactive); in experiment [9], 17 µM (inactive); in [10] it was > 100 µM (inactive); in experiment [11], > 100 µM (inactive); in experiment [12], > 100 µM (inactive). Also, the GI50 in experiment [13] was 68.1 µM (inactive); in [14] it was > 100 µM (inactive); in experiment [15], 84.9 µM (inactive); in experiment [16], > 100 µM (inactive).

With `C#CC1(O)c2ccccc2C(=O)c2ccccc21`, the GI50 in experiment [1], in experiment [2], in [3], in experiment [4], in [6] and in experiment [7] was > 100 µM (inactive) each time. Moreover, the GI50 in experiment [8], in experiment [9], in experiment [10], in [11], in experiment [12] and in [14] was > 100 µM (inactive) throughout. Besides, the GI50 in experiment [15] and in experiment [16] was > 100 µM (inactive) each time.

With `N#CCCCCCOCCOCCOCCOCCOCCCCCC#N`, the GI50 is > 100 µM (inactive) in experiment [1]; > 100 µM (inactive) in experiment [2]; > 100 µM (inactive) in [3]; > 100 µM (inactive) in experiment [4]; over 100 µM in experiment [5]; > 100 µM (inactive) in experiment [6]. The GI50 in experiment [7], in experiment [8], in experiment [9], in [10], in experiment [11] and in [12] was > 100 µM (inactive) throughout. Besides, the GI50 was > 100 µM (inactive) in [13], > 100 µM (inactive) in experiment [14], > 100 µM (inactive) in [15] and 81.1 µM (inactive) in experiment [16].

For the compound `C/C(CC(=O)Nc1cccc(Cl)c1C)=N\NC(=O)c1ccncc1`, the GI50 in experiment [1], in experiment [2], in [4], in experiment [6], in experiment [7] and in experiment [8] was > 100 µM (inactive) in each case. Also, the GI50 in experiment [9] was 58.9 µM (inactive); in [10] it was > 100 µM (inactive); in experiment [11], > 100 µM (inactive); in experiment [12], > 100 µM (inactive); in experiment [13], > 100 µM (inactive); in experiment [15], > 100 µM (inactive). For the same compound, the GI50 in [16] was > 100 µM (inactive).

Regarding `OC1/C(=C/c2ccccc2)CNC/C1=C\c1ccccc1` (centres undefined), the GI50 is > 100 µM (inactive) in experiment [1]; > 100 µM (inactive) in [2]; > 100 µM (inactive) in experiment [3]; > 100 µM (inactive) in experiment [4]; over 100 µM in [5]; > 100 µM (inactive) in [6]. Moreover, the GI50 in experiment [7], in experiment [8], in experiment [10], in experiment [11], in [12] and in experiment [13] was > 100 µM (inactive) in each case. The GI50 in experiment [14], in experiment [15] and in [16] was > 100 µM (inactive) throughout.

On to `CSc1nc(-c2ccccc2)c2c(n1)-c1ccccc1CC2`, for which the GI50 in [1], in [2], in experiment [4], in experiment [6], in experiment [7] and in experiment [8] was > 100 µM (inactive) each time. The GI50 in experiment [9], in experiment [10], in [11], in experiment [12], in experiment [13] and in [14] was > 100 µM (inactive) each time. For the same compound, the GI50 in [15] and in experiment [16] was > 100 µM (inactive) each time.

In the case of `C#CCC(N)(CO)C(=O)O` (centres undefined), the GI50 in experiment [1] was > 100 µM (inactive); in experiment [2] it was > 100 µM (inactive); in experiment [3], > 100 µM (inactive); in [4], > 100 µM (inactive); in experiment [5] it was over 100 µM; in experiment [6], > 100 µM (inactive). The GI50 in experiment [7], in experiment [8], in [9], in experiment [10], in experiment [11] and in [12] was > 100 µM (inactive) throughout. The GI50 in experiment [13], in experiment [15] and in [16] was > 100 µM (inactive) throughout.

`COCC(OC)C(CC=C(C#N)C#N)OC` (centres undefined): the GI50 in [1] was > 100 µM (inactive); in experiment [2], > 100 µM (inactive); in [3], > 100 µM (inactive); in [4] it was > 100 µM (inactive); in experiment [5], over 100 µM; in experiment [6], > 100 µM (inactive). Further, the GI50 in [7], in experiment [8], in experiment [9], in [11], in experiment [12] and in [13] was > 100 µM (inactive) throughout. The GI50 in experiment [14], in experiment [15] and in [16] was > 100 µM (inactive) throughout.

On to `COc1cc2c(c(OC)c1OC)-c1ccc(SC)c(=O)cc1[C@@H](NC(=O)c1cccc([N+](=O)[O-])c1)CC2`, for which the GI50 in experiment [1] is 0.0351 µM (active); in experiment [3], 0.0489 µM (active); in experiment [4] it was 0.0168 µM (active); in experiment [6] it was < 0.01 µM (active); in experiment [7], 0.0202 µM (active); in experiment [8] it was 0.0161 µM (active). For the same compound, the GI50 in experiment [9] was < 0.01 µM (active); in [11] it was 0.0208 µM (active); in experiment [12], 0.0414 µM (active); in [13], 0.021 µM (active); in experiment [14], 0.0282 µM (active); in experiment [15], 0.047 µM (active). Further, the GI50 in experiment [16] is < 0.01 µM (active).

`Cn1c(=O)nc2n(-c3cccc(Br)c3)c3ccccc3nc-2c1=O`: the GI50 in experiment [1] was 3.71 µM (inactive); in [2], 2.92 µM (inactive); in [3], 1.36 µM (inactive); in experiment [4] it was 1.68 µM (inactive); in [5], 4.06 µM; in [6], 4.8 µM (inactive). The GI50 is 2.71 µM (inactive) in experiment [8]; 1.61 µM (inactive) in experiment [9]; 2.96 µM (inactive) in [10]; 5.73 µM (inactive) in [11]; 21.3 µM (inactive) in [13]; 4.78 µM (inactive) in experiment [14]. Also, the results for the GI50 in experiment [15] and in [16] were 11.3 µM (inactive) and 2.09 µM (inactive), respectively.

The record behind these values is ChEMBL document CHEMBL1201862, “PubChem BioAssay data set” (2004).
